# Source: patent US12419887B2, “Transitioning patients treated for pulmonary arterial hypertension to selexipag” (ACTELION PHARMACEUTICALS LTD, priority 2019, dated 2025)
# Columns and labels:
# Type in all cases: in vivo, human
# [1] = test system: patients being treated for pulmonary arterial hypertension transitioned from a non-selexipag PPA; assay: Change in WHO/NYHA functional class (FC) from baseline after transition to selexipag; details: for patients with worsened FC / patients with improved FC: all transitioned patients
# Description: (§1) In this example, the effectiveness of transitioning patients from a non-selexipag PPA to selexipag was investigated. Patients were followed for up to 18 months and data were collected at the time of initiation, enrollment, and approximately quarterly post-enrollment. Eligible patients were aged ≥18 years and either newly initiated on selexipag at the time of enrollment or were already receiving selexipag and have a documented titration regimen.
# (§2) “Transitioned patients” were defined as patients who were (i) taking a non-selexipag PPA for ≥30 days at the time of selexipag initiation who stopped the initial agent ≤7 days before selexipag initiation; or (ii) continued taking the initial, non-selexipag PPA when they initiated selexipag and gradually transitioned off that agent.
# (§3) Assessments performed closest to selexipag initiation were considered to be “baseline.” Data at 6 and 12 months post-baseline were as follows (i) the window for the 6-month measurements was >0 months and <9 months; (ii) the window for the 12-month measurements was ≥9 months and <16 months; and (iii) the assessment closest to the 6- or 12-month time point, respectively, was used.
# [2] = test system: patients being treated for pulmonary arterial hypertension transitioned from a non-selexipag PPA; assay: Change from baseline in 6-minute walk distance (6MWD) after transition to selexipag
# Description: as §1, §2, §3
# [3] = test system: patients being treated for pulmonary arterial hypertension transitioned from a non-selexipag PPA; assay: Change from baseline in assessed risk category after transition to selexipag
# Description: as §3
# Risk categories were assigned. Seven variables were used: World Health Organization or New York Heart Association functional class (FC), 6-minute walk distance (6MWD), N-terminal prohormone of brain natriuretic peptide (NT-proBNP), brain natriuretic peptide (BNP), and hemodynamic parameters, including right atrial pressure, cardiac index, and mixed venous oxygen saturation. If both NT-proBNP and BNP were available, the risk classification of each value was averaged together and the mean was used in the risk categorization. Thresholds from the 2015 European Society of Cardiology/European Respiratory Society Guidelines were applied to assign a risk score for each available variable: 1=low risk, 2=intermediate risk, and 3=high risk. The risk score from all available variables was then averaged. The resulting number was rounded to the nearest integer to produce the patient's individual risk category: 1=low risk, 2=intermediate risk, and 3=high risk
# [4] = test system: patients being treated for pulmonary arterial hypertension; assay: Safety: selexipag discontinuation and adverse events leading to discontinuation
# Description: as §1
# AEs known to be associated with the selexipag mechanism of action were only reported if they were serious, led to selexipag discontinuation, or reflected an unusual pattern of severity.
# Safety data were collected only for the period during which patients were enrolled. The median total duration of selexipag treatment on study was 13.7 months (IQR: 9.1-17.8 months) for all patients: 13.8 months (IQR: 9.2-17.8 months) for patients in the inhaled/oral group and 13.4 months (IQR: 6.8-15.9 months) for patients in the parenteral group.
# [5] = transitioned from parenteral non-selexipag PPA, 6 months
# [6] = transitioned from oral/inhaled non-selexipag PPA, 6 months
# [7] = transitioned from oral/inhaled non-selexipag PPA, 12 months
# [8] = transitioned from parenteral non-selexipag PPA, 12 months
compound,measurement,setting,value
"CC(C)N(CCCCOCC(=O)NS(C)(=O)=O)c1cnc(-c2ccccc2)c(-c2ccccc2)n1 [selexipag, 2-{4-[(5,6-diphenylpyrazin-2-yl)(propan-2-yl)amino]butoxy}-N-(methanesulfonyl)acetamide]","disease course in the majority of patients as indicated by FC, 6MWD, and risk status","[1]; 12 months after transitioning, regardless of type of prior non-selexipag PPA",unchanged or improved disease
same,patients with worsened FC,[1]; 6 months vs baseline,none
same,patients with improved FC,"[1]; 6 months vs baseline, data for 46% of patients",27%
same,patients with worsened FC,[1]; 12 months vs baseline,10%
same,patients with improved FC,"[1]; 12 months vs baseline, data for 70% of patients",21%
same,FC versus baseline,"[1]; transitioned patients, at 6 and 12 months",maintained in the majority of transitioned patients
same,6MWD versus baseline,"[2]; all patients, 12 months",modest increase in 6MWD
same,6MWD versus baseline,"[2]; transitioned from oral/inhaled PPA, 6 months",increased 6MWD
same,median 6MWD versus baseline,[2]; [5],decreased median 6MWD from baseline
same,patients with improved risk status,[3]; [6],21%
same,patients with maintained risk status,[3]; [6],63%
same,patients with worsened risk status,[3]; [6],17%
same,patients with improved FC (in the risk status paragraph),[3]; [7],24%
same,patients with maintained risk status,[3]; [7],61%
same,patients with worsened FC (in the risk status paragraph),[3]; [7],15%
same,patients with improved risk status,[3]; [5],27%
same,patients with maintained or improved risk status,[3]; [5],67%
same,patients with maintained risk status,[3]; [5],40%
same,patients with worsened risk status,[3]; [5],33%
same,patients with improved risk status,[3]; [8],29%
same,patients with maintained or improved risk status,[3]; [8],86%
same,patients with maintained risk status,[3]; [8],57%
same,patients with worsened risk status,[3]; [8],14%
same,"AE leading to selexipag discontinuation: Acute respiratory failure, %",[4]; All Patients (N = 56),(1.8) %
same,"AE leading to selexipag discontinuation: Arthralgia, %",[4]; All Patients (N = 56),(1.8) %
same,"AE leading to selexipag discontinuation: Cardiac arrest, %",[4]; All Patients (N = 56),(1.8) %
same,"AE leading to selexipag discontinuation: Cardiac disorders, %",[4]; All Patients (N = 56),(7.1) %
same,"AE leading to selexipag discontinuation: Cardiac failure congestive, %",[4]; All Patients (N = 56),(1.8) %
same,"AE leading to selexipag discontinuation: Fluid overload, %",[4]; All Patients (N = 56),(1.8) %
same,"AE leading to selexipag discontinuation: Headache, %",[4]; All Patients (N = 56),(1.8) %
same,"AE leading to selexipag discontinuation: Investigations, % (Right ventricular systolic pressure)",[4]; All Patients (N = 56),(1.8) %
same,"AE leading to selexipag discontinuation: Investigations, n (Right ventricular systolic pressure)",[4]; All Patients (N = 56),1 n
same,"AE leading to selexipag discontinuation: Musculoskeletal and connective tissue disorders, %",[4]; All Patients (N = 56),(1.8) %
same,"AE leading to selexipag discontinuation: Nervous system disorders, %",[4]; All Patients (N = 56),(1.8) %
same,"AE leading to selexipag discontinuation: Respiratory failure, %",[4]; All Patients (N = 56),(1.8) %
same,"AE leading to selexipag discontinuation: Respiratory, thoracic and mediastinal disorders, %",[4]; All Patients (N = 56),(8.9) %
same,"AE leading to selexipag discontinuation: Right ventricular failure, %",[4]; All Patients (N = 56),(1.8) %
same,"AE leading to selexipag discontinuation: Right ventricular systolic pressure increased, %",[4]; All Patients (N = 56),(1.8) %
same,"AE leading to selexipag discontinuation: Worsening pulmonary hypertension, %",[4]; All Patients (N = 56),(5.4) %
same,"AE leading to selexipag discontinuation: Acute respiratory failure, %",[4]; Inhaled/Oral (n = 36),2.8%
same,"AE leading to selexipag discontinuation: Arthralgia, %",[4]; Inhaled/Oral (n = 36),2.8%
same,"AE leading to selexipag discontinuation: Cardiac arrest, %",[4]; Inhaled/Oral (n = 36),2.8%
same,"AE leading to selexipag discontinuation: Cardiac disorders, %",[4]; Inhaled/Oral (n = 36),5.6%
same,"AE leading to selexipag discontinuation: Cardiac failure congestive, %",[4]; Inhaled/Oral (n = 36),2.8%
same,"AE leading to selexipag discontinuation: Headache, %",[4]; Inhaled/Oral (n = 36),2.8%
same,"AE leading to selexipag discontinuation: Investigations, n (Right ventricular systolic pressure)",[4]; Inhaled/Oral (n = 36),0 n
same,"AE leading to selexipag discontinuation: Musculoskeletal and connective tissue disorders, %",[4]; Inhaled/Oral (n = 36),2.8%
same,"AE leading to selexipag discontinuation: Nervous system disorders, %",[4]; Inhaled/Oral (n = 36),2.8%
same,"AE leading to selexipag discontinuation: Patients with at least one AE, %",[4]; Inhaled/Oral (n = 36),16.7%
same,"AE leading to selexipag discontinuation: Respiratory failure, %",[4]; Inhaled/Oral (n = 36),2.8%
same,"AE leading to selexipag discontinuation: Respiratory, thoracic and mediastinal disorders, %",[4]; Inhaled/Oral (n = 36),5.6%
same,"AE leading to selexipag discontinuation: Cardiac disorders, %",[4]; Parenteral (n = 20),(10.0) %
same,"AE leading to selexipag discontinuation: Fluid overload, %",[4]; Parenteral (n = 20),(5.0) %
same,"AE leading to selexipag discontinuation: Investigations, % (Right ventricular systolic pressure)",[4]; Parenteral (n = 20),(5.0) %
same,"AE leading to selexipag discontinuation: Investigations, n (Right ventricular systolic pressure)",[4]; Parenteral (n = 20),1 n
same,"AE leading to selexipag discontinuation: Respiratory, thoracic and mediastinal disorders, %",[4]; Parenteral (n = 20),(15.0) %
same,"AE leading to selexipag discontinuation: Right ventricular failure, %",[4]; Parenteral (n = 20),(5.0) %
same,"AE leading to selexipag discontinuation: Right ventricular systolic pressure increased, %",[4]; Parenteral (n = 20),(5.0) %
same,"AE leading to selexipag discontinuation: Worsening pulmonary hypertension, %",[4]; Parenteral (n = 20),(15.0) %
same,patients who discontinued selexipag,[4]; non-transitioned patients (65 of 194),33.5%
same,patients who discontinued selexipag,[4]; transitioned patients (16 of 56),28.6%
